Values of other authors in PMC6503469, “The Use of Molecular Descriptors To Model Pharmaceutical Uptake by a Fish Primary Gill Cell Culture Epithelium” (Environmental Science & Technology, 2018).
Counter-ions that a name gives are not always drawn. Like-named read-outs stand apart in the source and are kept apart here.

Columns and labels:
[1] = source not stated; for PSA: polar surface area; for pKa: molecular descriptor; for log D: octanol–water distribution coefficient at pH 7.4; for log Kow: octanol–water partition coefficient; for log S: molecular descriptor (solubility)
[2] = not given; remark: listed apart in the source
[3] = set-up: method as in PMID 28853873; details: adult zebrafish
[4] = set-up: method as in Chen et al 2017; details: pH 7.6, after 6h exposure to 12.5 µg/L; ref Chen et al 2017
[5] = set-up: method as in Nallani et al 2012; details: pH 7.4, exposed to 83 µg/L for 7 days; ref Nallani et al 2012

SMILES | PSA [1] [Å^2] | pKa [1] | log D [1] | log Kow [1] | log S [1] | other results
CC(=O)Nc1nnc(S(N)(=O)=O)s1 [acetazolamide] | 115.04 |  |  |  |  | 
C[C@H]1C[C@H]2[C@@H]3CCC4=CC(=O)C=C[C@]4(C)[C@@]3(Cl)[C@@H](O)C[C@]2(C)[C@@]1(O)C(=O)CO [beclomethasone] | 106.97 | 13.85 | 4.16 | 3.49 |  | Plasma concentration (pH 7.4, 21 days exposure to 816 ng/L, dipropionate rapidly metabolized, combined values, ref Margiotta-Casaluci et al. 2016): 60 ± 35 ng/mL
NC(=O)N1c2ccccc2C=Cc2ccccc21 [carbamazepine] | 46.33 |  | 2.28 | 2.28 | –3.2 | Plasma concentration ([2]; pH 7.7, after 10 days exposed to 43 µg/L, ref Lahti et al 2011): 25 ng/mL; BCFss [3]: 1.41 ± 7.13 L kg^–1
O=C(O)Cc1ccccc1Nc1c(Cl)cccc1Cl [diclofenac, diclofenac sodium salt] | 52.16 |  | 1.22 | 1.9 | –4.8 | Plasma concentration (pH 7.6, after 48h exposure to 24 µg/L, ref Bickley et al 2017): 205 ng/mL; Plasma concentration (pH 7.6, after 21 days exposed to 0.95 µg/L, ref Bickley et al 2017): 26 ng/mL
Cc1ccc(C)c(OCCCC(C)(C)C(=O)O)c1 [gemfibrozil] | 46.53 | 4.42 | 1.40 | 4.77 | –4 | Plasma concentration [4]: 183 ng/mL
CC(C)Cc1ccc(C(C)C(=O)O)cc1 (centres unmarked) [ibuprofen, ibuprofen sodium salt] | 40.10 |  | 0.29 | 2.48 | –3.5 | Plasma concentration (pH 7.4, after 24h exposed to 107 µg/L, ref Patel et al 2016): 550 ng/mL
CC(C(=O)O)c1cccc(C(=O)c2ccccc2)c1 (centres unmarked) [ketoprofen] | 54.37 |  | 0.06 | 0.97 |  | Plasma concentration ([2]; pH 7.4, after 14 days exposure to 91 µg/L, ref Cuklev et al 2012): 1 ng/mL
C#C[C@]1(O)CC[C@H]2[C@@H]3CCC4=CC(=O)CC[C@@H]4[C@H]3CC[C@@]21C [norethindrone, norethindrone-19] | 37.30 | 17.59 | 2.98 | 3.15 |  | Plasma concentration [5]: 950 ng/mL
CC(=O)CC(c1ccccc1)c1c(O)c2ccccc2oc1=O (centres unmarked) [warfarin] |  | 5.08 | 0.16 |  | –3.8 | 
